# From US12559471B2, “1,5-dihydro-2,4-benzodiazepine-3-one derivative and application thereof” (JIANGSU NHWA PHARMACEUTICAL CO., LTD, priority 2020, dated 2026)
# “And” between values parts separate entries of the source, which are not always exact repeats. Equal entries are not always repeated.
# Legend:
# [1] = test system: DOI-induced head shaking behavior of mice; test: DOI-induced head shaking (head thrust) test in mice; type: in vivo; conditions: Mus musculus, intragastric, DOI 1 mg/kg i.p., 0-20 min, read-out: ED50 for inhibiting the DOI-induced head shaking behavior
# Description: 1. Head Thrust Test in Mice
# Mice were stratified according to body weight and then randomly divided into a model control group, a blank control group and drug administration groups. 1 h after the intragastric administration of a vehicle or a drug, the animals were placed in a beaker (with the diameter of 13 cm and the height of 19 cm) paved with fresh padding, and were injected with a modeling drug DOI ((±)-1-(2,5-dimethoxy-4-iodophenyl)-2-aminopropane hydrochloride or (±)-2,5-dimethoxy-4-iodoamphetamine hydrochloride) intraperitoneally at a dose of 1 mg/kg. The head shaking times of the mice during the 0-20 min after the intraperitoneal injection of DOI were recorded. The head shaking behavior is defined as a rapid rotational twitching or wet dog-like shaking of the mouse head, which is distinguished from normal grooming or exploring behavior.
# [2] = test system: MPTP+MK-801-induced Parkinson's disease mouse model; test: MPTP+MK-801-induced Parkinson's disease mouse model (anti-PDP efficacy model); type: in vivo; conditions: ip, mice, intraperitoneal, read-out: PDP efficacy (high activity) ED50
# Description: 1.1 Effect on MPTP+MK-801-induced Parkinson's disease mouse model (anti-PDP efficacy model)
# Animals were injected with different doses of MPTP(1-methyl-4-phenyl-1,2,3,6-tetrahydropyridine) intraperitoneally every morning for 5 consecutive days. […] Then, after an interval of 0.25 h, the mice were placed into an autonomous activity test box (a black polyethylene box with the specification of 29 cm×29 cm×30 cm) for video recording for 20 min. Video analysis was performed after the video recording to evaluate the activity of the mice.
# [3] = target: 5-HT2A receptor (Homo sapiens (Human), UniProt P28223); test: Competitive 5-HT2A receptor binding assay (3H-Ketanserin, CHO-5-HT2A membrane); conditions: for Ki: CHO-5-HT2A membrane, 3H-Ketanserin, read-out: 5-HT2A (Ki value); for 2C/2A: ratio of 5-HT2C Ki to 5-HT2A Ki
# Sequence of 5-HT2A receptor (P28223 whole entry): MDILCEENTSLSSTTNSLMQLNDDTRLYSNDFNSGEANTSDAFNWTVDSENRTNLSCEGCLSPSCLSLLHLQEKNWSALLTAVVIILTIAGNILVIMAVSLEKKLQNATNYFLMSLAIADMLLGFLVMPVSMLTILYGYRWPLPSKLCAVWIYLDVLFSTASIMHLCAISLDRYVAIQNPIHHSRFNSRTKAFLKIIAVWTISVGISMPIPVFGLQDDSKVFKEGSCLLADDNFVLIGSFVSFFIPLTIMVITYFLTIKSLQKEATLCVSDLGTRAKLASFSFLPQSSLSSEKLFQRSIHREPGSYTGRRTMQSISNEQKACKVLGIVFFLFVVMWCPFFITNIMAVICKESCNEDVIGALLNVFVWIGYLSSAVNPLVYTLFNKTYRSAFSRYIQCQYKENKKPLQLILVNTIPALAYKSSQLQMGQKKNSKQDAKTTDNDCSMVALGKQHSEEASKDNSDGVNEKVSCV
# Description: 1) Preparation of CHO-5-HT2A Receptor Membrane
# The precipitate was collected, and the supernatant was discarded. The solution B was added into the precipitate. […] The supernatant was carefully discarded, and the solution B was added into the precipitate again. […] The precipitate obtained was stored at −80° C.
# 1) Competitive 5-HT2A Receptor Binding Assay
# Step 2: 100 μL of the membrane preparation was added into each reaction tube.
# After the filtration, the filter membrane was dried at 60° C. and added into a scintillation disc attached with a bottom membrane, which was then added with 40 μL of scintillation liquid, sealed with a top membrane, and left to stand.
# [4] = target: hERG potassium channel (Homo sapiens (Human), UniProt Q12809); test: In vitro hERG assay, whole-cell patch clamp in HEK-293 cells; type: cell-based; conditions: HEK-293 cells stably expressing hERG, room temperature
# Sequence of hERG potassium channel (Q12809 whole entry): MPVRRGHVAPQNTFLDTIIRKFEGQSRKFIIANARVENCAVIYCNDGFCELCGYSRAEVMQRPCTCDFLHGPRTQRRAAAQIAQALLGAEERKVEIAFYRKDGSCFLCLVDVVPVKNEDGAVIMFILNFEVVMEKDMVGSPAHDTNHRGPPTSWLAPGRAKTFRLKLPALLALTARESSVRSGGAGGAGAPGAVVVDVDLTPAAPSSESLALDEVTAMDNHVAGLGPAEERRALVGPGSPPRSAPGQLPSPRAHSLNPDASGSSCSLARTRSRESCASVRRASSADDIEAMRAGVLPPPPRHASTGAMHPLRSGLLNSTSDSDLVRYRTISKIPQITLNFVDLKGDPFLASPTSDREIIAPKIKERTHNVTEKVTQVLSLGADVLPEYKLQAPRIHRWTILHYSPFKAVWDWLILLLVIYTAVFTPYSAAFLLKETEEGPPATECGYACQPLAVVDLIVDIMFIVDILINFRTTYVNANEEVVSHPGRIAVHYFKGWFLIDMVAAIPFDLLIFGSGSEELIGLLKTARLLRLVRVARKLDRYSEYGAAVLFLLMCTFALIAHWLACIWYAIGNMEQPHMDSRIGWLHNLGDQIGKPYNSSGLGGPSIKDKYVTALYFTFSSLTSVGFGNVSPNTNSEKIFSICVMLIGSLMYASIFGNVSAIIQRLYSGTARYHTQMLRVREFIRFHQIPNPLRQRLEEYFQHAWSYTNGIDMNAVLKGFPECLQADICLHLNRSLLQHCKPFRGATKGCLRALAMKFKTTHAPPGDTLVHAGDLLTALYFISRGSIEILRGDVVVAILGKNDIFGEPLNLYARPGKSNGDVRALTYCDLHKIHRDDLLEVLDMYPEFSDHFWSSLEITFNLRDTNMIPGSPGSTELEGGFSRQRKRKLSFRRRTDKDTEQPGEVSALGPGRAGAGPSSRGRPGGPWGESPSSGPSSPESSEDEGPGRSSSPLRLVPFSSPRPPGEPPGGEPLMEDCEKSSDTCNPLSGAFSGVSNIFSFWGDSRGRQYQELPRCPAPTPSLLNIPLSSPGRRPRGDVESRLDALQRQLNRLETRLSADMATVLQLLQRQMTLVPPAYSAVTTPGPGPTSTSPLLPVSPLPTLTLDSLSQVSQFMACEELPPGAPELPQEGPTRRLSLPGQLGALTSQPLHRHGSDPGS
# Description: b. […] The working solutions of the test compounds were ultrasonically treated for 20 min.
# The cell suspension was gently pipetted to separate the aggregated cells.
# Under an inverted microscope, recording electrodes were controlled by a glass electrode micromanipulator (micromanipulation) to contact with the cell. […] After forming the GΩ seal, a rapid capacitance compensation was given.
# Negative control and test compounds flowed through the recording chamber in an ascending order of concentration by gravity perfusion to quickly act on the cells. During the recording, the extracellular fluid was continuously circulated by a vacuum pump. […] Each concentration was allowed to act for 5 min or until the current was stabilized. All experiments were performed at room temperature.
# [formula] Basic statistics were calculated for each concentration, including mean, standard deviation (SD), standard error (SE), and replicates (n). The dose-dependent curve was fitted with the following equation and the half maximal inhibitory concentration (IC50) of the test compounds was calculated:
# Curve fitting and calculation of IC50 were performed by GraphPad Prism 5.0 software. 5. Experimental Results
# [5] = Investigation of sedation side effects (autonomic activity, movement distance); type: in vivo, mice; conditions: mouse, in vivo, ip; C57BL/6j mice, intraperitoneal, 45 min after administration
# Description: (§1) 1.3 Investigation of Sedation Side Effects (Anti-Sedation Model)
# (§2) According to different doses of each group, solutions at different concentrations were separately formulated for intraperitoneal injection, with the final administration volume of 10 mL/kg.
# (§3) The movement at 0-20 min was recorded on video, and the movement distance in 20 min was analyzed by Top Scan 3.00 software. The inhibition rate of each group relative to the blank group after the administration were calculated, and the sedation effects of the compounds were comprehensively evaluated in combination with a statistical conclusion.
# [6] = test system: C57BL/6j mice; test: as above; type: in vivo; conditions: sedation ED50 / PDP efficacy ED50
# Description: as §1, §2, §3
# [7] = target: 5-HT2C receptor (Rattus norvegicus (Rat), UniProt P08909); conditions: read-out: 5-HT2C (Ki value); rat cortex membrane, 3H-Mesulergine
# Sequence of 5-HT2C receptor (P08909 33-460): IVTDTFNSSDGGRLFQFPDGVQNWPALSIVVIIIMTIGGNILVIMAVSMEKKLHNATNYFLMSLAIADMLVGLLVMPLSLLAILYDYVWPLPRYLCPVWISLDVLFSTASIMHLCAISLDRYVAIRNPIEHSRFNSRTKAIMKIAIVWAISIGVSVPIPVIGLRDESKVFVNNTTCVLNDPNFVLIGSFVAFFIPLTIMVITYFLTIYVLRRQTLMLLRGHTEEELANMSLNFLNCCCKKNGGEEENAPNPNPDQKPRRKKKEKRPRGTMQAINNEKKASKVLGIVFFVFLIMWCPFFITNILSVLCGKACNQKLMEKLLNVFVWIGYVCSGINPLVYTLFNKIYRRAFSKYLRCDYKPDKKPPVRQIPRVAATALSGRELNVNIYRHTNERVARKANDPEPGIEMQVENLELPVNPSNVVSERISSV
# Description: 2) Preparation of 5-HT2C Membrane
# The rat cortex was taken out of a refrigerator at −80° C. and thawed spontaneously. The solution A was added, and the mixture was homogenized for 3-4 s at 4th gear for a total of 4 times and centrifuged at 50000 g for 25 min at 4° C. The supernatant was discarded, and the solution A was added into the precipitate. The mixture was mixed well using a vortex mixer and centrifuged at 50000 g for 25 min at 4° C. (repeated twice). The supernatant was discarded after the centrifugation, and the precipitate was stored at −80° C. for later use.
# 2) Competitive 5-HT2C Receptor Binding Assay
# Step 1: the prepared membrane was suspended in the homogenate B to obtain a 210 mg/mL membrane suspension for later use.
# Step 2: 100 μL of the membrane suspension was added into each reaction tube.
# Step 3: 100 μL of the solution B was added into a total binding tube (TB), 100 μL of Ketanserin (final concentration: 1.0×10^−5 M) was added into a non-specific binding tube (NB), and 100 μL of test compound was added into each compound binding tube (CB).
# Step 4: 10 μL of radioligand ^3H-Mesulergine was added into each reaction tube to reach a final concentration of 3 nM.
# Step 5: each reaction tube was incubated at 37° C. for 25 min. After the reaction was completed, the binding ligands were rapidly filtered under reduced pressure, wherein the Whatman test paper GF/C was washed with 0.5% PEI solution 1 h in advance. The filter membrane was fully washed with cold Tris buffer solution, taken out and put into a 4 mL scintillation disc, which was then added with 1 mL toluene scintillation solution and shaken for mixing well.
# Step 6: the scintillation disc was put into a liquid scintillation counter for counting.
# [8] = test system: MPTP+APO-induced climbing behavior in male mice; test: MPTP+APO-induced climbing behavior in male mice (DA motor deterioration model); type: in vivo; conditions: observation in words
# Description: 1.2 Effect on MPTP+APO-induced climbing behavior in male mice (DA motor deterioration model) Animals were injected with different doses of MPTP intraperitoneally every morning for 5 consecutive days. […] After the subcutaneous injection, animals were immediately placed into a climbing cage (self-made, a cylindrical cage with the diameter of 13 cm and the height of 15 cm, made of a stainless steel wire mesh with the diameter of about 0.1 cm, the bottom of which is a semitransparent polyethylene plate, and the cage cover of which is a stainless steel cage cover), and the behaviors of animals at minutes 10-11, 20-21 and 30-31 after the APO injection was observed and scored.
# Scoring criteria: four feet on the floor scored 0; two forepaws on the cage scored 1; and four feet on the cage scored 2.
# [9] = test system: PPI in normal rats; test: PPI in normal rats (dosing test, normal saline instead of DOI); type: in vivo; conditions: for PPI %, MEAN / PPI %, individual animal: normal saline
# Description: (§4) The test was performed according to literature and preliminary experiments, and the specific process was as follows: first an adaptation period of 5 min was given (62 dB background sound), and 5 separate startle reflex stimuli were given after the adaptation period (blockl, results not included in the analysis to reduce the initial response of the animals to a plateau level), followed by 4 different types of tests (block2) presented in a pseudo-random manner, namely: 1) startle reflex stimulus alone (pulse-alone, 120 dB, lasting 20 ms); 2) prepulse stimulus alone 13 dB above the background sound (prepulse-alone, 75 dB, lasting 20 ms); 3) prepulse stimulus in combination with startle reflex stimulus, each lasting 20 ms, with an interval of 100 ms; and 4) no stimulus in which only the background sound was given (no stimulus). Each trial was performed 5 times, with an average interval of 20 s (10-30 s) between trials.
# The response amplitude of the startle reflex stimulus alone or the prepulse stimulus in combination with startle reflex stimulus was expressed as the AVG (instrument-specific unit) value, which indirectly reflects the size of the flinching response of the rat body. Evaluation index: PPI %=(1−response amplitude of prepulse stimulus in combination with startle reflex stimulus/response amplitude of startle reflex stimulus alone)×100. The higher the value is, the greater the degree of the inhibition is. Dosing Test:
# The DOI at 0.5 mg/kg administered to animals in the above groups was changed to normal saline (NS), and other operations including administration and testing were the same as those in the intervention test.
# [10] = test system: DOI-induced PPI impairment in rats; test: DOI-induced PPI impairment test in rats (intervention test); type: in vivo; conditions: DOI 0.5 mg/kg
# Description: 3. DOI ((f)-1-(2,5-dimethoxy-4-iodophenyl)-2-aminopropane hydrochloride or (f)-2,5-dimethoxy-4-iodoamphetamine hydrochloride) induced PPI impairment effect test in rats
# 30 min after the intragastric administration of a drug (or a vehicle) and 30 min after the subcutaneous injection of DOI at 0.5 mg/kg at the neck, namely 60 min after the intragastric administration, the rats were placed into a startle reflex test box for testing.
# as §4
# The response amplitude of the startle reflex stimulus alone or the prepulse stimulus in combination with startle reflex stimulus was expressed as the AVG (instrument-specific unit) value, which indirectly reflects the size of the flinching response of the rat body. Evaluation index: PPI %=(1−response amplitude of prepulse stimulus in combination with startle reflex stimulus/response amplitude of startle reflex stimulus alone)×100. The higher the value is, the greater the degree of the inhibition is.
# [11] = test system: MK-801-induced high activity behavior of mice; test: Dizocilpine (MK-801)-induced high activity test in mice; type: in vivo; conditions: Mus musculus, 1 h, intragastric, MK-801 0.3 mg/kg i.p., 60 min, read-out: ED50 for inhibiting the MK-801-induced high activity behavior
# Description: 2. Dizocilpine (MK-801)-Induced High Activity Test in Mice 2.1 Test Method
# Mice were stratified according to body weight and then randomly divided into a model control group, a blank control group and drug administration groups. After the administration of a test substance (or a control substance), the mice were placed into an autonomous activity test box (a black polyethylene box with the specification of 29 cm×29 cm×30 cm) for adaptation, and injected with MK-801 at 0.3 mg/kg intraperitoneally 1 h after the intragastric administration. The mice were then placed into the autonomous activity test box for video recording for 60 min. Video analysis was performed after the video recording to evaluate the activity of the mice.
compound,measurement,setting,value
"CC(C)COc1ccc(CN2Cc3cc(F)ccc3CN(C3CCN(C)CC3)C2=O)cc1 [NH-K-A19001, 7-fluoro-2-(1-methylpiperidin-4-yl)-4-[[4-(2-methylpropoxy)phenyl]methyl]-1,5-dihydro-2,4-benzo diazepine-3-one]",ED50,[1],0.06 mg/kg
same,ED50,[2],0.33 mg/kg
same,Ki,[3],0.028 nM
same,2C/2A,[3],86.327
same,IC50,[4],260 nM
same,ED50 at 45 min,[5],3.74 mg/kg
same,Ratio of sedation ED50 to PDP efficacy ED50,[6],11.33
same,Ki,[7],2.4 nM
same,motor deterioration (DA mechanism of action),[8],no motor deterioration is observed
"CN1CCC(N2Cc3cc(F)ccc3CN(Cc3ccc(OC4CC4)cc3)C2=O)CC1 [NH-K-A19006, 8-fluoro-2-(1-methylpiperidin-4-yl)-4-[[4-(cyclopropoxy)phenyl]methyl]-1,5-dihydro-2,4-benzodiazepine-3-one]",effect on PPI in normal rats,[9]; 0.3 mg/kg,no significant effects were seen
same,"PPI %, MEAN",[9]; 0.03 mg/kg intragastric,68.69%
same,"PPI %, individual animal",[9]; 0.03 mg/kg intragastric,81.41% and 91.96% and 55.90% and 54.35% and 60.94% and 74.39% and 87.22% and 43.35%
same,"PPI %, MEAN",[9]; 0.1 mg/kg intragastric,70.23%
same,"PPI %, individual animal",[9]; 0.1 mg/kg intragastric,60.40% (2×) and 81.41% and 77.50% and 71.96% and 69.71% and 50.53% and 89.95%
same,"PPI %, MEAN",[9]; 0.3 mg/kg intragastric,53.62%
same,"PPI %, individual animal",[9]; 0.3 mg/kg intragastric,47.76% and 42.79% and 68.71% and 70.20% and 55.52% and 65.07% and 16.28% and 62.68%
same,ED50,[1],0.012 mg/kg
same,ED50,[2],0.31 mg/kg
same,reversal of DOI-induced PPI impairment,"[10]; 0.3 mg/kg, P<0.05",significantly reverse
same,"PPI %, MEAN",[10]; 0.03 mg/kg intragastric,33.01%
same,"PPI %, individual animal",[10]; 0.03 mg/kg intragastric,49.78% and 58.97% and 53.17% and 2.79% and 32.00% and 8.44% and 20.87% and 38.06%
same,"PPI %, MEAN",[10]; 0.1 mg/kg intragastric,43.48%
same,"PPI %, individual animal",[10]; 0.1 mg/kg intragastric,12.46% and 51.33% and 38.29% and 47.73% and 47.53% and 74.93% and 10.18% and 65.40%
same,"PPI %, MEAN",[10]; 0.3 mg/kg intragastric,50.12%
same,"PPI %, individual animal",[10]; 0.3 mg/kg intragastric,60.53% and 60.18% and 56.91% and 67.62% and 85.73% and 7.56% and 39.78% and 22.65%
same,Ki,[3],0.277 nM
same,2C/2A,[3],5.856
same,IC50,[4],1190 nM
same,ED50,[11],0.265 mg/kg
same,ED50 at 45 min,[5],11.9 mg/kg
same,Ki,[7],1.62 nM
